We go through 19 compounds from PubChem BioAssay AID256 (DTP/NCI, 2004).

Where “and” joins values, the source holds several entries; their conditions need not be identical. Equal entries are not always repeated. Inconclusive results and toxic doses are left out.

This assay relates to CD2F1 mice, L1210 leukemia ip, survival T/C. Description: NCI In Vivo Anticancer Drug Screen. Data for tumor model L1210 Leukemia (intraperitoneal) in CD2F1 (CDF1) mice. The settings on record: higher = longer survival. An outline of the steps:
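In this screen, transplantable tumors were grown in mice given either the compound or its vehicle. Results were expressed as the treated measurement relative to the control measurement.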

The mark [1] stands for this setting: endpoint: mean survival time, dose: 100.0 mg/kg/injection, schedule: Q01DX009 (ip), vehicle: Klucel (hydroxypropylcellulose) (HPC).
[2] abbreviates: endpoint: mean survival time, dose: 200.0 mg/kg/injection, schedule: Q01DX009 (ip), vehicle: Klucel (hydroxypropylcellulose) (HPC).
Setting [3] is: endpoint: mean survival time, dose: 100.0 mg/kg/injection, schedule: Q01DX001 (ip), vehicle: saline.
Where [4] appears, read: endpoint: mean survival time, dose: 200.0 mg/kg/injection, schedule: Q01DX001 (ip), vehicle: saline.
Setting [5] is: endpoint: mean survival time, dose: 400.0 mg/kg/injection, schedule: Q01DX001 (ip), vehicle: saline.
[6] abbreviates: endpoint: mean survival time, dose: 100.0 mg/kg/injection, schedule: Q04DX003 (ip), vehicle: saline.
The mark [7] stands for this setting: endpoint: mean survival time, dose: 200.0 mg/kg/injection, schedule: Q04DX003 (ip), vehicle: saline.
[8] abbreviates: endpoint: mean survival time, dose: 100.0 mg/kg/injection, schedule: Q04DX003 (ip), vehicle: saline with Tween-80.
Where [9] appears, read: endpoint: mean survival time, dose: 200.0 mg/kg/injection, schedule: Q04DX003 (ip), vehicle: saline with Tween-80.
[10] abbreviates: endpoint: mean survival time, dose: 400.0 mg/kg/injection, schedule: Q04DX003 (ip), vehicle: saline with Tween-80.
Where [11] appears, read: endpoint: mean survival time, dose: 100.0 mg/kg/injection, schedule: Q04DX002 (ip), vehicle: saline with Tween-80.
The mark [12] stands for this setting: endpoint: mean survival time, dose: 200.0 mg/kg/injection, schedule: Q04DX002 (ip), vehicle: saline with Tween-80.
Setting [13] is: endpoint: mean survival time, dose: 400.0 mg/kg/injection, schedule: Q04DX002 (ip), vehicle: saline with Tween-80.

Regarding `Cc1cc(N(CCCl)CCCl)ccc1C=Nc1cccnc1`, the T/C runs as follows: (endpoint: mean survival time, dose: 50.0 mg/kg/injection, schedule: Q01DX009 (ip), vehicle: Klucel (hydroxypropylcellulose) (HPC)) 101 % of control; under setting [1], 106 % of control; under setting [2], 110 % of control; (endpoint: mean survival time, dose: 400.0 mg/kg/injection, schedule: Q01DX009 (ip), vehicle: Klucel (hydroxypropylcellulose) (HPC)) 112 % of control.

With `Cc1cc(N(CC(C)Cl)CC(C)Cl)ccc1N=Nc1ccccc1C(=O)O` (stereo unspecified), the T/C runs as follows: (endpoint: mean survival time, dose: 1.56 mg/kg/injection, schedule: Q01DX009 (ip), vehicle: Klucel (hydroxypropylcellulose) (HPC)) 104 % of control; (endpoint: mean survival time, dose: 3.12 mg/kg/injection, schedule: Q01DX009 (ip), vehicle: Klucel (hydroxypropylcellulose) (HPC)) 104 % of control; (endpoint: mean survival time, dose: 6.25 mg/kg/injection, schedule: Q01DX009 (ip), vehicle: Klucel (hydroxypropylcellulose) (HPC)) 117 % of control and 109 % of control; (endpoint: mean survival time, dose: 12.5 mg/kg/injection, schedule: Q01DX009 (ip), vehicle: Klucel (hydroxypropylcellulose) (HPC)) 111 % of control.

Consider `N#CSCc1ccc(Cl)c(CSC#N)c1`, for which the T/C reads like this: (endpoint: mean survival time, dose: 18.8 mg/kg/injection, schedule: Q01DX009 (ip), vehicle: saline) 108 % of control; (endpoint: mean survival time, dose: 18.8 mg/kg/injection, schedule: Q04DX003 (ip), vehicle: saline) 103 % of control; (endpoint: mean survival time, dose: 37.5 mg/kg/injection, schedule: Q01DX009 (ip), vehicle: saline) 108 % of control; (endpoint: mean survival time, dose: 37.5 mg/kg/injection, schedule: Q04DX003 (ip), vehicle: saline) 105 % of control; (endpoint: mean survival time, dose: 75.0 mg/kg/injection, schedule: Q01DX001 (ip), vehicle: saline) 96 % of control; (endpoint: mean survival time, dose: 75.0 mg/kg/injection, schedule: Q01DX009 (ip), vehicle: saline) 108 % of control. Also, the T/C (endpoint: mean survival time, dose: 75.0 mg/kg/injection, schedule: Q04DX003 (ip), vehicle: saline) is 109 % of control.

`C=C(C)[C@]12CC(C)C34OC(/C=C\C=C\CCCCCCCCC)(O[C@@H]1[C@@H]3[C@@H]1O[C@]1(CO)[C@@H](O)[C@]1(O)C(=O)C(C)=C[C@@H]41)O2` (stereo partly specified): the T/C runs as follows: (endpoint: mean survival time, dose: 0.01 mg/kg/injection, schedule: Q01DX009 (ip), vehicle: distilled water + alcohol) 102 % of control; (endpoint: mean survival time, dose: 0.02 mg/kg/injection, schedule: Q01DX009 (ip), vehicle: distilled water + alcohol) 94 % of control; (endpoint: mean survival time, dose: 0.04 mg/kg/injection, schedule: Q01DX009 (ip), vehicle: distilled water + alcohol) 100 % of control; (endpoint: mean survival time, dose: 0.09 mg/kg/injection, schedule: Q01DX009 (ip), vehicle: alcohol) 95 % of control; (endpoint: mean survival time, dose: 0.09 mg/kg/injection, schedule: Q01DX009 (ip), vehicle: distilled water + alcohol) 96 % of control; (endpoint: mean survival time, dose: 0.19 mg/kg/injection, schedule: Q01DX009 (ip), vehicle: alcohol) 100 % of control. In addition, the T/C (endpoint: mean survival time, dose: 0.38 mg/kg/injection, schedule: Q01DX009 (ip), vehicle: alcohol) was 101 % of control; the T/C (endpoint: mean survival time, dose: 0.75 mg/kg/injection, schedule: Q01DX009 (ip), vehicle: alcohol) is 112 % of control; the T/C (endpoint: mean survival time, dose: 1.5 mg/kg/injection, schedule: Q01DX009 (ip), vehicle: alcohol) is 117 % of control.

Turning to `CC(C)(C)CC(C)(C)c1ccc(OCCOc2ccc(C(=O)Nc3ccc([N+](=O)[O-])cc3)cc2)cc1`, the T/C under setting [1] is 87 % of control; the T/C (endpoint: mean survival time, dose: 100.0 mg/kg/injection, schedule: Q04DX003 (ip), vehicle: Klucel (hydroxypropylcellulose) (HPC)) was 96 % of control; the T/C under setting [2] was 105 % of control; the T/C (endpoint: mean survival time, dose: 200.0 mg/kg/injection, schedule: Q04DX003 (ip), vehicle: Klucel (hydroxypropylcellulose) (HPC)) is 98 % of control; the T/C (endpoint: mean survival time, dose: 400.0 mg/kg/injection, schedule: Q04DX003 (ip), vehicle: Klucel (hydroxypropylcellulose) (HPC)) is 94 % of control.

Take `COc1ccc(-n2cc(C#N)c3c(C)cc(C)nc32)cc1`: the T/C is 100 % of control under setting [3], 96 % of control under setting [4] and 87 % of control under setting [5].

`COc1ccc(C2NN(C)C3(O)C(=O)N(C4CCCCC4)CC23)cc1` (stereo unspecified): the T/C is 107 % of control (endpoint: mean survival time, dose: 100.0 mg/kg/injection, schedule: Q01DX001 (ip), vehicle: saline with Tween-80); 94 % of control (endpoint: mean survival time, dose: 200.0 mg/kg/injection, schedule: Q01DX001 (ip), vehicle: saline with Tween-80); 96 % of control (endpoint: mean survival time, dose: 400.0 mg/kg/injection, schedule: Q01DX001 (ip), vehicle: saline with Tween-80).

For `NCc1ncn[nH]1`, the T/C reads like this: under setting [6], 100 % of control; under setting [7], 96 % of control.

As for `CCCCCCCCCCC(=O)N1CCOCC1`, the T/C runs as follows: (endpoint: mean survival time, dose: 50.0 mg/kg/injection, schedule: Q01DX009 (ip), vehicle: saline with Tween-80) 87 % of control; (endpoint: mean survival time, dose: 100.0 mg/kg/injection, schedule: Q01DX009 (ip), vehicle: saline with Tween-80) 96 % of control.

As to `CCCCC(=O)c1cc(O)ccc1O`, the T/C under setting [3] was 107 % of control, the T/C under setting [4] is 98 % of control and the T/C under setting [5] was 92 % of control.

In the case of `CCCCNC(=O)C1C2CCC(C2)C1C(=O)NCCCC` (stereo unspecified), the T/C is 98 % of control under setting [8], 98 % of control under setting [9] and 90 % of control under setting [10].

Regarding `BrC1=CC2C3C=CC(c4ccccc43)C12` (stereo unspecified), the T/C under setting [8] is 95 % of control, the T/C under setting [9] was 95 % of control and the T/C under setting [10] is 96 % of control.

Regarding `CCN(CC)c1cccc(OC(=O)NC)c1`, the T/C by setting is: (endpoint: mean survival time, dose: 5.0 mg/kg/injection, schedule: Q01DX001 (ip), vehicle: saline) 102 % of control; (endpoint: mean survival time, dose: 10.0 mg/kg/injection, schedule: Q01DX001 (ip), vehicle: saline) 102 % of control; (endpoint: mean survival time, dose: 20.0 mg/kg/injection, schedule: Q01DX001 (ip), vehicle: saline) 102 % of control.

Consider `O=C(c1ccccc1CO)N1CCOCC1`, for which the T/C is 98 % of control (endpoint: mean survival time, dose: 12.5 mg/kg/injection, schedule: Q04DX002 (ip), vehicle: saline); 94 % of control (endpoint: mean survival time, dose: 25.0 mg/kg/injection, schedule: Q04DX002 (ip), vehicle: saline); 94 % of control (endpoint: mean survival time, dose: 50.0 mg/kg/injection, schedule: Q04DX002 (ip), vehicle: saline).

`Cc1ccccc1NC(=O)Oc1c(Cl)cc(Cl)c2ccccc12`: the T/C runs as follows: under setting [11], 89 % of control; under setting [12], 93 % of control; under setting [13], 101 % of control.

Consider `CC(CN=Cc1ccccc1N)N=Cc1ccccc1N` (stereo unspecified), for which the T/C reads like this: (endpoint: mean survival time, dose: 50.0 mg/kg/injection, schedule: Q04DX002 (ip), vehicle: saline with Tween-80) 93 % of control; under setting [11], 97 % of control; under setting [12], 97 % of control; under setting [13], 113 % of control.

For `CCCC1CC[N-]CC1.CCCC1CC[N-]CC1.CCCC1CC[N-]CC1.CCCC1CC[N-]CC1.CS(C)=O.CS(C)=O.[Cl-].[Cl-].[Cl-].[Cl-].[Cl][Rh][Cl].[Rh+3]`, the T/C by setting is: (endpoint: mean survival time, dose: 6.25 mg/kg/injection, schedule: Q01DX009 (ip), vehicle: water) 98 % of control; (endpoint: mean survival time, dose: 12.5 mg/kg/injection, schedule: Q01DX009 (ip), vehicle: water) 112 % of control; (endpoint: mean survival time, dose: 25.0 mg/kg/injection, schedule: Q04DX003 (ip), vehicle: water) 120 % of control.

Turning to `Cc1ccc(S(=O)(=O)OCC2CC=CCC2COS(=O)(=O)c2ccc(C)cc2)cc1` (stereo unspecified), the T/C is, setting by setting: (endpoint: mean survival time, dose: 50.0 mg/kg/injection, schedule: Q04DX003 (ip), vehicle: saline) 102 % of control; under setting [6], 96 % of control; under setting [7], 91 % of control.

On to `CC(C)(C)C(=O)OCC1OC(n2ccc(O)cc2=O)C(O)C1O` (stereo unspecified), for which the T/C by setting is: (endpoint: median survival time, dose: 67.0 mg/kg/injection, schedule: Q01DX009 (ip), vehicle: saline + Tween-80 + alcohol) 168 % of control; (endpoint: median survival time, dose: 100.0 mg/kg/injection, schedule: Q01DX009 (ip), vehicle: saline + Tween-80 + alcohol) 163 % of control; (endpoint: median survival time, dose: 150.0 mg/kg/injection, schedule: Q01DX009 (ip), vehicle: saline + Tween-80 + alcohol) 150 % of control; (endpoint: median survival time, dose: 225.0 mg/kg/injection, schedule: Q01DX009 (ip), vehicle: saline + Tween-80 + alcohol) 154 % of control.
